Test results: patent US20110213026A1, “EXTRACTS WITH LIVER-X-RECEPTOR MODULATORS, COMPOUNDS AND THEIR USE ESPECIALLY IN WEIGHT CONTROL” (INTERMED DISCOVERY GMBH, priority 2007, published 2011)

Tests used:
[1] = In vivo assay in rats: 8 week feeding study, body weight and body fat; parameters: species or system Sprague-Dawley (SD) rats; settings: high fat diet, 0.1% in chow, 8 weeks, versus control groups
Description: The “further enriched extract” of Example 2 (also called IMD-XT0003 above and below), containing the LXRα active compounds is prepared and tested using six week old, none-adult, male Sprague-Dawley (SD) rats (Charles Rivers, Sulzfeld, Germany). The extract is mixed with the chow (ssniff Spezialdiäten GmbH, Soest, Germany) to a final concentration of 0.1% by weight and fed for 8 weeks in two different treatment regimes: • Balanced diet (standardised to 4% fat) • High fat diet (standardised 34% fat) Controls obtain the same diet without IMD-XT0003 or other anti-obesity additives. Body weight is studied and analysed every week, body fat and mineral bone density are analysed by DEXA (scanner, see Example 3) in week 0, in week 4 and at the last day of the study in week 8. Furthermore, the white body fat weight is determined after removal of the tissue at the end of the feeding study in week 8. For the DEXA measurements the same apparatuses and methodology are used as described in example 3. As a control experiment within the high fat diet, epigallocatechin-3-gallate (EGCG, Chengdu Purification Technology Development Co. Ltd, Chengdu, China) in pure form is used as the standard for comparison of potency and differentiation as well as benchmark against competing compounds or formulations against obesity. […]

[2] = molecular target: T1, LXR ligand binding domain (GST-LXR LBD) (Homo sapiens, UniProt Q13133); assay: In vitro LXR assay (HTR-FRET, coactivator b-SRC1 recruitment); type: biochemical; settings: FRET 12-point dose response
T1 sequence (Q13133 209-447): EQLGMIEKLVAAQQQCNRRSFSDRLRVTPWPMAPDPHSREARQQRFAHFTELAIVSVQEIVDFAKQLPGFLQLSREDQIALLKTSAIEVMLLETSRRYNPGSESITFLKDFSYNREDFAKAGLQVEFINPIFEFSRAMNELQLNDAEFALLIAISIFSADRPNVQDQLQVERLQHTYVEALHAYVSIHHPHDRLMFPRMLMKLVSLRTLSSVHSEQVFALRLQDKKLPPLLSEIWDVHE
Source text: The LXR assay is configured using time-resolved fluorescence resonance energy transfer technology (HTR-FRET) (see Albers M, Blume B, Schlueter T, Wright MB, Kober I, Kremoser C, Deuschle U, Koegl M; “A novel principle for partial agonism of liver X receptor ligands. Competitive recruitment of activators and repressors”. J. Biol. Chem. 2006 24;281(8) 4920-30; and Chin J, Adams A D, Bouffard A, Green A, Lacson R G, Smith T, Fischer P A, Menke J G, Sparrow C P, Mitnaul L J; “Miniaturization of cell-based beta-lactamase-dependent FRET assays to ultra-high throughput formats to identify agonists of human liver X receptors”. Assay Drug Dev. Technol. 2003 1(6):777-87).
In the presence of an agonist, a fusion protein of glutathione S-transferase (GST) and LXR ligand binding domain (GST-LXR LBD) associates with a biotin-labeled nuclear receptor coactivator (b-SRC1). A fluorescent signal is detected in the presence of Eu-labeled anti GST antibodies and streptavidin-labeled allophycocyanin (APC). FRET is made possible by agonist-dependent close interaction of the test proteins.
Compounds which act as agonists at the LXR ligand binding domain are detected by an increase in time-resolved fluorescence. This LXR-FRET is performed as described by Albers et al. (loc. cit.).
FRET-active compounds are assayed in a FRET 12-point dose response experiment to determine the EC50—values of the compounds mentioned in the following table 9: […]

NPFF2 receptor = NPFF2 receptor (Homo sapiens, UniProt Q9Y5X5); settings: literature report; cited from earlier work
Sequence of NPFF2 receptor (Q9Y5X5 whole entry): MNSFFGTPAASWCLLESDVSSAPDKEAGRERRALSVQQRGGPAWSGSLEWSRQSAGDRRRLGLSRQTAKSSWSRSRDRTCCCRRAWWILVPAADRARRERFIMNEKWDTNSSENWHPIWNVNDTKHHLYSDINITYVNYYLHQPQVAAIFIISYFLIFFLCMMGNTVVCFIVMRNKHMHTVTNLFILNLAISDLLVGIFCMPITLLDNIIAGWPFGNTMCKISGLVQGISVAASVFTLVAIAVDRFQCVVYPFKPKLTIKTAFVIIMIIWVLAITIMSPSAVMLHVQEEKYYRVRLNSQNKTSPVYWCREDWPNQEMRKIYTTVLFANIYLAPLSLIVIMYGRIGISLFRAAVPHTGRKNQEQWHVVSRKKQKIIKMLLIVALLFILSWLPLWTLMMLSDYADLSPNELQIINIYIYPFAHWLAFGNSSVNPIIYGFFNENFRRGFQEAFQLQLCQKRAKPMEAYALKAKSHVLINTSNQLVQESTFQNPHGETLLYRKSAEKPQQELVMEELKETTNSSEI

EC50 [2] [µM] | Compound | NPFF2 receptor agonism (NPFF2 receptor) | other results
– | epigallocatechin-3-gallate [EGCG] | – | body fat accumulation [1]: No effects; body weight accumulation [1]: No effects
10.6 | COc1cc2c(c(OC)c1OC)-c1c(cc3c(c1OC)OCO3)CC(C)C(C)C2 (stereo not shown) [Gomisin N, 3,3,4,5-Tetramethoxy-4′,5′-methylenedioxy-2,2′-cyclolignan] | – | –
– | COc1cc2c(c(OC)c1OC)-c1c(cc3c(c1OC)OCO3)[C@H](OC(=O)c1ccccc1)[C@@](C)(O)[C@@H](C)C2 [Gomisin G] | potent NPFF2 receptor agonists | –
> 10 | COc1cc2c(c(OC)c1OC)-c1c(cc(OC)c(OC)c1OC)CC(C)C(C)C2 (stereo not shown) [Desoxyschizandrol A, 3,3′,4,4′,5,5′-Hexamethoxy-2,2′-cyclolignan] | – | –
5.6 | COc1c2c(cc3c1-c1c(cc4c(c1OC)OCO4)CC(C)C(C)C3)OCO2 (stereo not shown) [Schizandrin C, 3,3′-Dimethoxy-4,5:4′,5′-bis(methylenedioxy)-2,2′-cyclolignan] | – | –
– | COc1cc2c(c(OC)c1OC)-c1c(cc(OC)c(OC)c1OC)[C@H](OC(=O)c1ccccc1)[C@@](C)(O)[C@@H](C)C2 [benzoylgomisin Q] | potent NPFF2 receptor agonists | –
